Like-named read-outs stand apart in the source and are kept apart here. Starred links: 1 amine or outer side, 2 acyl side, 3 side chain; linkers in the order of their positions; H or OH if unused. Non-standard residues stand in square brackets, D forms with d. Residues, ends and D or L forms follow the SMILES beside them. Groups on a side chain read outwards from the residue. *: point of attachment. Ethylenediamine = C(CN[*:2])N[*:1]; Hyp = O=C(O)[C@@H]1C[C@@H](O)CN1; Phg = N[C@H](C(=O)O)c1ccccc1; CO = O=C([*:1])[*:2]; Bn = c1ccc(C*)cc1
Key:
AtT20 cells [1] = assay: ACTH AlphaLISA assay, screen of kinase inhibitor library; type: cell-based, murine; details: Mus musculus, read-out: ACTH Inhibition (%)
Protocol: The latter mouse antibody is then trapped by an anti-mouse IgG (Fc specific) conjugated to acceptor beads, bringing the donor and acceptor beads into close proximity. […] Conversely if the cell SN ACTH is reduced following treatment with an ACTH inhibitor, the Alpha signal is restored.
One column (#1) with vehicle treatment only, and two cell-free columns (#23 & 24) were included as AlphaLISA signal negative and positive controls respectively to monitor assay performance.
Thereafter, 2 μL of cell culture supernatant was transferred from the black culture plate into a white low volume assay plate (Corning) using Vprep (Agilent) equipped with Velocity 11 Biocel 1800 (Agilent). 1 μL of biotinylated ACTH peptide solution (AnaSpec) and 1 μL of anti-ACTH antibody solution (EMD) is added sequentially into the low volume assay plate using AquaMax DW4 (Molecular Devices) Following a 1 h incubation, 1 μL donor and acceptor beads (PerkinElmer) were added to the assay plate using ELx405 (BioTek). Optical seals (Sigma) are used to minimize assay evaporation during the subsequent 2 h incubation. The assay plate is then transferred by a Thermo Spinnaker robotic arm to Envision (PerkinElmer) for AlphaLISA signal detection.

AtT20 cells [2] = assay: Nuclei staining (Hoechst 33342 dye), screen of kinase inhibitor library; type: cell-based, murine; details: Mus musculus; for inhibition at 1 µM / inhibition at 10 µM: read-out: Nuclei Inhibition (%)
Protocol: This plate was incubated in a Cytomat 6000 sealed with gas permeable polyurethane film (USA Scientific) and imaged on ImageXpress^XL (Molecular Devices). All these instruments are integrated on a Beckman Coulter SAMI automation platform which tracks timing to ensure accuracy and consistency of all steps.

[3] = background statement; cited from earlier work
AtT20 cells [4] = assay: AtT20 cell proliferation IC50 (CellTiter-Glo); type: cell-based, murine; details: read-out: IC50 for proliferation inhibition
Protocol: The IC50 values were calculated using sigmoidal dose-response curve (GraphPad Prism).

AtT20 cells [5] = assay: Relative proliferation rate, panobinostat and buparlisib alone and combined; type: cell-based, murine; details: Veh 1.0±0.06
Protocol: FIG. 6G depicts the results of a study wherein AtT20 cells were treated with panobinostat and burparlisib simultaneously to detect the effects on cell proliferation.

AtT20 cells [6] = assay: ACTH secretion in AtT20 cells (ELISA); type: cell-based, murine; details: for EC50: Mus musculus, read-out: EC50 for ACTH secretion inhibition
Protocol: The EC50 for ACTH secretion inhibition were calculated using a sigmoidal dose-response curve (GraphPad Prism).
FIG. 6F depicts the results of a study wherein AtT20 cells were treated with panobinostat and burparlisib simultaneously to detect the effects on ACTH secretion.

[7] = system: AtT20 cells stably transfected with POMC promoter driven luciferase; assay: POMC promoter-driven luciferase assay (POMC-Luc); type: cell-based, murine; details: 1 day
Description: Using a POMC promoter-driven luciferase assay, the direct actions of the aforementioned compounds on POMC transcription was examined.

[8] = system: human corticotroph tumor primary cultures; assay: Proliferation of human corticotroph tumor primary cultures (CellTiter-Glo); type: cell-based; details: two human primary corticotroph tumor cultures, 3 days, read-out: IC50 anti-proliferative effect
AtT20 cells [9] = assay: POMC mRNA expression in AtT20 cells by real time PCR; type: cell-based, murine; details: 20 nM to 1.25 nM, 24 h, RT-PCR
Protocol: The POMC mRNA expression […] values were determined by real time PCR.
FIG. 6I depicts the results of a study wherein AtT20 cells were treated with panobinostat and burparlisib simultaneously to detect the effects on POMC mRNA expression.

AtT20 cells [10] = assay: Expression of POMC regulators (Nurr1, Nur77, LXRα, GR) after treatment; type: cell-based, murine
Description: Accordingly, the expressions of several nuclear receptors, known as POMC positive and negative regulators, including Nurr1 (NR4A2), Nur77 (NR4A1), LXRα (NR1H3), and GR (NR3C1), were examined.

[11] = system: AtT20 cells inoculated into athymic nude mice; assay: Xenograft model of Cushing disease; type: in vivo, athymic nude mice (Nu/J strain); details: 300 mg/kg oral gavage daily, 18 days
Protocol: Animal bodyweight was recorded daily. […] Tumor size was recorded daily. […] Tumor size was measured post euthanizer. […] Tumor weight was measured post euthanizer. […] Blood samples were collected by cardiac puncture and plasma ACTH levels were measured by ELISA. […] Blood samples were collected by cardiac puncture and plasma corticosterone levels were measured by ELISA. […] AtT20 cells (2×10^5/animal) were injected into the hind flank region of athymic nude mice (Nu/J strain from Jackson lab). […] During 18-days of CUDC-907-treatment, animal bodyweight (FIG. 4A) and tumor sizes (FIG. 4B) were measured daily. Upon experiment completion, the animals were euthanized and tumors were harvested, and weighed. Blood samples were collected by cardiac puncture.

[12] = system: murine corticotroph tumor Caspase-3/7; assay: Caspase-Glo3/7 assay; type: cell-based; details: 24 hours
AtT20 cells [13] = assay: c-Myc and cell cycle inhibitor mRNA by real time PCR; type: cell-based; details: murine corticotroph tumor cells, 5 nM, 24 h
Nurr1 = Nurr1 interaction with HDACs and Nurr1 phosphorylation by immunoprecipitation; type: cell-based
Description: FIG. 7F depicts the interactions between Nurr1, HDACs, and Nurr1 phosphorylation, as detected by immunoprecipitation.

[14] = system: human corticotroph tumor primary cultures; assay: ACTH secretion in human corticotroph tumor primary culture (ELISA); type: cell-based; details: Vehicle 3.7±0.2
AtT20 cells [15] = assay: Histone acetylation (H3K9) and AKT pathway activation in AtT20 cells; type: cell-based, murine; details: 3 days
[16] = Mus musculus, AtT20, 72 h, 3 day-treatment
[17] = Mus musculus, AtT20, 72 h, 3 days
[18] = 72 h, 100 nM, AtT20 cells, 3 days
[19] = 72 h, 1 μM, AtT20 cells, 3 days
[20] = 72 h, 10 μM, AtT20 cells, 3 days

CC[C@@H]1C(=O)N(C)c2cnc(Nc3ccc(C(=O)NC4CCN(C)CC4)cc3OC)nc2N1C1CCCC1 [BI 2536]
inhibition at 0.1 µM (AtT20 cells [1]; AtT20, 72 h): 54.9%
inhibition at 1 µM (AtT20 cells [1]; AtT20, 72 h): 82%
inhibition at 10 µM (AtT20 cells [1]; AtT20, 72 h): 77.7%
inhibition at 1 µM (AtT20 cells [2]; AtT20, 72 h): 92.3%
inhibition at 10 µM (AtT20 cells [2]; AtT20, 72 h): 94%

NCCCC[C@@H]1NC(=O)[C@@H](Cc2c[nH]c3ccccc23)NC(=O)[C@H](c2ccccc2)NC(=O)[C@@H]2C[C@@H](OC(=O)NCCN)CN2C(=O)[C@H](Cc2ccccc2)NC(=O)[C@H](Cc2ccc(OCc3ccccc3)cc2)NC1=O [pasireotide] (cyclo([Hyp]([CO-Ethylenediamine])[Phg][dW]KY(Bn)F))
patients in whom the drug causes diabetes [3]: approximately 50%

Cc1[nH]c2ccccc2c1CCNCc1ccc(/C=C/C(=O)NO)cc1 [panobinostat]
IC50 (AtT20 cells [4]; [16]): 20 nM
Relative Proliferation Rate (AtT20 cells [5]; panobinostat 5 nM alone): 1.0±0.01
Relative Proliferation Rate (AtT20 cells [5]; panobinostat 10 nM alone): 0.8±0.005
EC50 (AtT20 cells [6]): 4 nM
ACTH secretion (AtT20 cells [6]; panobinostat 5 nM alone, Veh 39.6±2): 28.7 ± 0.1 ng/mL
ACTH secretion (AtT20 cells [6]; panobinostat 10 nM alone, Veh 39.6±2): 13.6 ± 1 ng/mL
inhibition of ACTH secretion (AtT20 cells [6]; panobinostat 5 and 10 nM alone): up to 66%

CS(=O)(=O)N1CCN(Cc2cc3nc(-c4cccc5[nH]ncc45)nc(N4CCOCC4)c3s2)CC1 [pictilisib]
effect on POMC transcription [7]: increased POMC transcription at higher doses
IC50 (AtT20 cells [4]; [17]): 800 nM

Nc1cc(C(F)(F)F)c(-c2cc(N3CCOCC3)nc(N3CCOCC3)n2)cn1 [buparlisib]
effect on POMC transcription [7]: increased POMC transcription at higher doses
IC50 (AtT20 cells [4]; [17]): 500 nM
Relative Proliferation Rate (AtT20 cells [5]; buparlisib 62.5 nM alone): 1.0±0.06
effect on ACTH secretion (AtT20 cells [6]; buparlisib alone): did not inhibit ACTH secretion

COc1ccc(-c2nc(N3CCOCC3)c3sc(CN(C)c4ncc(C(=O)NO)cn4)cc3n2)cn1 [CUDC-907]
inhibition at 0.1 µM (AtT20 cells [1]; [18]): 84.7%
inhibition at 1 µM (AtT20 cells [1]; [19]): 80.1%
inhibition at 10 µM (AtT20 cells [1]; [20]): 80%
EC50 ([7]; Mus musculus, 24 h, read-out: EC50 for POMC transcription inhibition): 0.5 nM
IC50 ([8]; Homo sapiens, 72 h): 3 nM
IC50 [8]: 5 nM
effect on POMC mRNA expression (AtT20 cells [9]): potent reduction in POMC mRNA expression
Nurr1 expression (AtT20 cells [10]; 1.25 nM, 24 h): reduction in Nurr1 expression
LXRα expression (AtT20 cells [10]; 5 and 10 nM, 24 h): reductions
Nur77 expression (AtT20 cells [10]; 5 and 10 nM, 24 h): reductions
Nurr1 protein expression (AtT20 cells [10]; 6 h-treatment): dramatic inhibition
GR expression (AtT20 cells [10]; 24 h): minor effects
Nurr1 mRNA expression (AtT20 cells [10]; real time PCR): inhibition of Nurr1 mRNA expression
IC50 (AtT20 cells [4]; 3 day-treatment): 5.1 nM
IC50 (AtT20 cells [4]; [16]): 5 nM
reduction of plasma ACTH level ([11]; vs controls): 77%
reduction of plasma corticosterone level ([11]; vs controls): 85%
reduction in tumor size ([11]; vs vehicle): ~35%
reduction in tumor weight ([11]; vs vehicle): 44%
tumor weight ([11]; Control 0.098±0.02): 0.04±0.006 gram
tumor volume ([11]; Control 0.17±0.05): 0.065±0.02 cm^3
Plasma corticosterone ([11]; Control 180±87): 27 ± 4.66 ng/mL
Plasma ACTH ([11]; Control 206.1±27.2): 47.4 ± 7.3 pg/mL
activity of caspase-3 and -7 [12]: increasing the activity
c-Myc mRNA expression (AtT20 cells [13]): increased
Nurr1 interaction with HDAC-1, 2, 3, but not HDAC10 (Nurr1): unaffected
Nurr1 serine/threonine phosphorylation levels (Nurr1): dramatically inhibited
ACTH secretion [14]: 1.9 ± 0.001 ng/mL
AKT activation and downstream target 4E-BPI (AtT20 cells [15]): blocked
histone acetylation Ac-H3-K9 (AtT20 cells [15]): elevated histone acetylation
reduction of ACTH secretion (AtT20 cells [6]; 1.25 nM): 59%
ACTH secretion (AtT20 cells [6]; 1.25 nM, 24 h, Vehicle 30±19): 12 ± 2.4 ng/mL
ACTH secretion (AtT20 cells [6]; 2.5 nM, 24 h, Vehicle 30±19): 12 ± 5.7 ng/mL
EC50 (AtT20 cells [6]): 1 nM
ACTH secretion (AtT20 cells [6]; concentration not given, 24 h, Vehicle 30±19): 15 ± 2.2 ng/mL
inhibition at 0.1 µM (AtT20 cells [2]; 72 h, AtT20 cells, 3 days): 90.1%
inhibition at 1 µM (AtT20 cells [2]; [19]): 99.2%
inhibition at 10 µM (AtT20 cells [2]; [20]): 99.3%

Cc1nc(Nc2n[nH]c3c2CN(C(=O)N[C@H](CN(C)C)c2ccccc2)C3(C)C)c2sccc2n1 [PF-3758309]
inhibition at 0.1 µM (AtT20 cells [1]; [18]): 70.4%
inhibition at 1 µM (AtT20 cells [1]; [19]): 70.2%
inhibition at 10 µM (AtT20 cells [1]; [20]): 77.5%
inhibition at 0.1 µM (AtT20 cells [2]; 72 h, AtT20 cells, 3 days): 91.5%
inhibition at 1 µM (AtT20 cells [2]; [19]): 95.6%
inhibition at 10 µM (AtT20 cells [2]; [20]): 95.2%

CCc1cnn2c(NCc3ccc[n+]([O-])c3)cc(N3CCCC[C@H]3CCO)nc12 [Dinaciclib (SCH727965)]
inhibition at 0.1 µM (AtT20 cells [1]; [18]): 58.1%
inhibition at 1 µM (AtT20 cells [1]; [19]): 77.3%
inhibition at 10 µM (AtT20 cells [1]; [20]): 69.2%
inhibition at 0.1 µM (AtT20 cells [2]; 72 h, AtT20 cells, 3 days): 92%
inhibition at 1 µM (AtT20 cells [2]; [19]): 98.3%
inhibition at 10 µM (AtT20 cells [2]; [20]): 98%

COc1ccc(-c2ccc3ncc4c(c3c2)n(-c2ccc(N3CCNCC3)c(C(F)(F)F)c2)c(=O)n4C)cn1 [BGT226 (NVP-BGT226)]
inhibition at 0.1 µM (AtT20 cells [1]; [18]): 57.5%
inhibition at 1 µM (AtT20 cells [1]; [19]): 86.3%
inhibition at 10 µM (AtT20 cells [1]; [20]): 88.2%
inhibition at 0.1 µM (AtT20 cells [2]; 72 h, AtT20 cells, 3 days): 94.3%
inhibition at 1 µM (AtT20 cells [2]; [19]): 99%
inhibition at 10 µM (AtT20 cells [2]; [20]): 95.4%

Reference: US20220184084A1, “COMPOSITIONS AND METHODS FOR TREATING CUSHING'S DISEASE” (The Regents of the University of California, priority 2019, published 2022)
